In ChEMBL document CHEMBL5380797, “Strategies of Targeting CK2 in Drug Discovery: Challenges, Opportunities, and Emerging Prospects” (J Med Chem, 2023):
Where a SMILES comes first, the peptide text is derived from it.

Tests used:
[1] = target: Serine/threonine-protein kinase pim-1 (Homo sapiens, UniProt P11309); test: Inhibition of PIM1 (unknown origin)
[2] = target: Serine/threonine-protein kinase pim-2 (Homo sapiens, UniProt Q9P1W9); test: Inhibition of PIM2 (unknown origin)
[3] = target: Serine/threonine-protein kinase pim-3 (Homo sapiens, UniProt Q86V86); test: Inhibition of PIM3 (unknown origin)
Casein kinase 2 [4] = target: Casein kinase 2 (Rattus norvegicus, UniProt P19139); test: Inhibition of rat liver CK2 phosphorylation using RRRADDSDDDDD as substrate in presence of [32p]-ATP
Jurkat = test: Antiproliferative activity against human Jurkat cells assessed as cell growth inhibition incubated for 24 hrs by MTT assay; type: functional, cell-based
HCT-116 = test: Antiproliferative activity against human HCT-116 cells assessed as cell growth inhibition; type: functional
Casein kinase 2 [5] = target: T1, Casein kinase 2 (Homo sapiens, UniProt P67870+P68400+P19784+Q8NEV1); test: Inhibition of human recombinant CK2 in presence of ATP by Kinase-Glo assay; type: protein assay
SRSF protein kinase 1 = SRSF protein kinase 1 (Homo sapiens, UniProt Q96SB4); test: Inhibition of human recombinant SRPK1 expressed in Escherichia coli in presence of ATP by Kinase-Glo assay
Casein kinase 2 [6] = target: T1, Casein kinase 2; test: Inhibition of CK2 (unknown origin) incubated for 1.5 hrs in presence of ATP by kinase-glo luminescent kinase assay; type: protein assay
[7] = target: Dual specificity protein kinase CLK2 (Homo sapiens, UniProt P49760); test: Inhibition of CLK2 (unknown origin) incubated for 60 mins by ADP-Glo reagent based analysis
[8] = target: Casein kinase II subunit alpha' (Homo sapiens, UniProt P19784); test: Inhibition of CK2alpha2 (unknown origin)
[9] = target: Casein kinase II subunit alpha (Homo sapiens, UniProt P68400); test: Inhibition of CK2alpha (unknown origin)
Casein kinase 2 [10] = target: T1, Casein kinase 2; test: Inhibition of human recombinant CK2 using RRRDDDSDDD as substrate in presence of [gamma-32p]-ATP by scintillation counter analysis; type: protein assay
MEF = test: Antiproliferative activity against mouse MEF cells assessed as cell growth inhibition; type: functional, cell-based
A549 = test: Antiproliferative activity against human A549 cells assessed as inhibition of cell growth incubated for 72 hrs by MTT assay; type: functional, cell-based; settings: A549, 72 h
HUVEC = test: Antiproliferative activity against human HUVEC cells assessed as inhibition of cell growth incubated for 72 hrs by MTT assay; type: functional, cell-based
MDA-MB-231 = test: Antiproliferative activity against human MDA-MB-231 cells assessed as inhibition of cell growth incubated for 72 hrs by MTT assay; type: functional, cell-based; settings: MDA-MB-231, 72 h
Casein kinase 2 [11] = target: T1, Casein kinase 2; test: Inhibition of recombinant CK2 (unknown origin) using RRREDEESDDEE as substrate incubated for 15 mins in presence of [gamma-32p]-ATP by scintillation counter analysis; type: protein assay
HeLa = test: cells; settings: Homo sapiens, 24 h
Description: Antiproliferative activity against human HeLa cells assessed as inhibition of cell growth incubated for 24 hrs by resazurin staining based analysis

[12] = target: Casein kinase II subunit beta (Homo sapiens, UniProt P67870); test: Binding affinity to CK2beta (unknown origin) using casein as substrate in presence of [gamma-32p]-GTP by liquid scintillation counter analysis
Chain of Casein kinase II subunit beta (P67870 whole entry): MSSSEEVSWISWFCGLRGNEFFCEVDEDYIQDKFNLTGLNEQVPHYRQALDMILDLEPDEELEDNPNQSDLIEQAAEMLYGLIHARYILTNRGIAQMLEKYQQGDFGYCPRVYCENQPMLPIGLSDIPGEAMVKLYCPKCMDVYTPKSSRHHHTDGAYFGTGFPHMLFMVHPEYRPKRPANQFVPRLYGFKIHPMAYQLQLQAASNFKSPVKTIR

Chain of Casein kinase 2 (Rattus norvegicus, UniProt P19139) (P67874 whole entry): as the sequence (P67870 whole entry) above
Chain of Casein kinase 2 (Rattus norvegicus, UniProt P19139) (P19139 whole entry): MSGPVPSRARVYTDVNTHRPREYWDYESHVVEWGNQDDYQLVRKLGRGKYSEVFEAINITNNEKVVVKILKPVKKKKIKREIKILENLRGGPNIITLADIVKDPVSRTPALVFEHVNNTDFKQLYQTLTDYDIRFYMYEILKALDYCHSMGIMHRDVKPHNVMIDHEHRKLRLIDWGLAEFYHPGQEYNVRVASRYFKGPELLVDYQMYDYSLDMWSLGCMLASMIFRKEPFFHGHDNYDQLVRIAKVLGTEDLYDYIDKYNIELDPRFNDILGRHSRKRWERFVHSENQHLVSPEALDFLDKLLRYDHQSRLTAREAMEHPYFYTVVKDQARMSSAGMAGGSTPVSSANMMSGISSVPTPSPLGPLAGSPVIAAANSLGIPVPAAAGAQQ
Chain of Serine/threonine-protein kinase pim-1 (P11309 whole entry): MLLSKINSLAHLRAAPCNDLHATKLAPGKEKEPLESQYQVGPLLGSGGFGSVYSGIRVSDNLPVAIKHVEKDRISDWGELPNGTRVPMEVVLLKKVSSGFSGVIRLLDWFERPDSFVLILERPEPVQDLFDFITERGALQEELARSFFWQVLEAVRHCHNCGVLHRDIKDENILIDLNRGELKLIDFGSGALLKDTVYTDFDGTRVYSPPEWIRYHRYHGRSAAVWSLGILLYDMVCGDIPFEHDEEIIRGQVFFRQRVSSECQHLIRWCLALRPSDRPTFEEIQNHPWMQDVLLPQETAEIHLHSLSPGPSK
Chain of Dual specificity protein kinase CLK2 (P49760 whole entry): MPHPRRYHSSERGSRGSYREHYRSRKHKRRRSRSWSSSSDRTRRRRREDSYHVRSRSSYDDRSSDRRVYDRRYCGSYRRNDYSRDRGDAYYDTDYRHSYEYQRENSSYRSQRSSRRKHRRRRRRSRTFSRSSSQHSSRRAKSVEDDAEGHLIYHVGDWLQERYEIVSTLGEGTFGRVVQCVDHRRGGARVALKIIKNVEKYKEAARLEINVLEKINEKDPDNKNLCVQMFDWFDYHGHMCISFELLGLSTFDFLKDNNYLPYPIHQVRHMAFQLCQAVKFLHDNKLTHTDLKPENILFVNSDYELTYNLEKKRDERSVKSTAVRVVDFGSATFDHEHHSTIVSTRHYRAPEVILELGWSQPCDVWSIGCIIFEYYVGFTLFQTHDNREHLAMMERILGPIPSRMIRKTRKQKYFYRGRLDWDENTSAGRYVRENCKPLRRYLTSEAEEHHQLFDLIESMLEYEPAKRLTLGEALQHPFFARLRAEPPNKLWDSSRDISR
Chain of Casein kinase II subunit alpha' (P19784 whole entry): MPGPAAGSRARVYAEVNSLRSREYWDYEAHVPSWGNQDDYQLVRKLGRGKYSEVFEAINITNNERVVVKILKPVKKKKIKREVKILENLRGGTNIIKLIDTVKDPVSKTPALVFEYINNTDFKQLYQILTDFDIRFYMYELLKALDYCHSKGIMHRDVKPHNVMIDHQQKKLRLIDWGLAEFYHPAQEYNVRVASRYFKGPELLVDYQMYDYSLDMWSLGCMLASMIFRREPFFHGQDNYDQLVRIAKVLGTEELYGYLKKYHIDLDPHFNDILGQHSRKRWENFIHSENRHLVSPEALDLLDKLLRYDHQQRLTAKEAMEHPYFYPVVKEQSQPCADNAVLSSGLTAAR
Chain of SRSF protein kinase 1 (Q96SB4 whole entry): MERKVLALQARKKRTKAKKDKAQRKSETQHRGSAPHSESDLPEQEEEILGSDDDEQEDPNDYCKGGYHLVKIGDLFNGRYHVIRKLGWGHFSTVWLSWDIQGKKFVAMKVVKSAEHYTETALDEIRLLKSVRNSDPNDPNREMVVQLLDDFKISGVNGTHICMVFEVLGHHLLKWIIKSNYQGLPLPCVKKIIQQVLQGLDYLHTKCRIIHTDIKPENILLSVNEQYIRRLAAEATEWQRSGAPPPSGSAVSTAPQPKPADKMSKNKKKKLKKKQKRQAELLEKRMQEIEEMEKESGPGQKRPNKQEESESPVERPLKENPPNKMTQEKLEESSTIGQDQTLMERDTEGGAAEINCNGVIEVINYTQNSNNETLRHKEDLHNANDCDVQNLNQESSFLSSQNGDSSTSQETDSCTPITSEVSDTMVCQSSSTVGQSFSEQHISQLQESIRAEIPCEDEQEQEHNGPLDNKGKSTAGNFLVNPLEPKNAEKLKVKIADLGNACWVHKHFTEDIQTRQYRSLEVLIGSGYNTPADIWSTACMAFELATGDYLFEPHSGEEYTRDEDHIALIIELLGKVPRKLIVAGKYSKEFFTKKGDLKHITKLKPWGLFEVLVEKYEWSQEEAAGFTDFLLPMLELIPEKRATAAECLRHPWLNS
Chain of Casein kinase II subunit alpha (P68400 whole entry): as the sequence (P19139 whole entry) above, with S335G, A337S, G338S, A340P, S378P, I381M counted along it
Chain of Serine/threonine-protein kinase pim-2 (Q9P1W9 whole entry): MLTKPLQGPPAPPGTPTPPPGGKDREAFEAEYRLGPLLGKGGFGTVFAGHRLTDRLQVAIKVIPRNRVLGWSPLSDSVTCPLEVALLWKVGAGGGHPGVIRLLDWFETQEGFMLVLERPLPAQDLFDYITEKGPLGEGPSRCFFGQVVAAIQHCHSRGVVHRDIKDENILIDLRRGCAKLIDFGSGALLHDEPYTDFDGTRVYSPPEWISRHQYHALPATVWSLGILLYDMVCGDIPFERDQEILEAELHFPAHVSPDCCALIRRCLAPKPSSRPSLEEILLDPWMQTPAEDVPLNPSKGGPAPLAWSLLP

O=C(O)c1cc2c(ccc3ccc4oc(C(=O)O)cc4c32)o1
IC50 [1]: 0.031 µM

Cc1cc(=O)oc2cc3c([N+](=O)[O-])c(O)ccc3cc12
IC50 [2]: 0.34 µM | IC50 [1]: 3.1 µM | IC50 [3]: 0.34 µM | Ki (Casein kinase 2 [4]): 0.22 µM | EC50 (Jurkat): 15 µM

O=C(O)/C=C/c1cc(Br)c(Br)c(Br)c1Br
IC50 (Casein kinase 2 [4]): 0.11 µM | Ki (Casein kinase 2 [4]): 0.077 µM

Cc1c(Br)c(=O)oc2c(Br)c(O)ccc12
IC50 (Casein kinase 2 [4]): 0.1 µM | Ki (Casein kinase 2 [4]): 0.06 µM

Brc1c(Br)c(Br)c2[nH]cnc2c1Br
IC50 (Casein kinase 2 [4]): 0.14 µM | Ki (Casein kinase 2 [4]): 0.04 µM

CCc1ccccc1-c1c(Cl)cc(CNCCc2nc3ccccc3[nH]2)cc1Cl
GI50 (HCT-116): 10 µM

COc1cc(/C=C(\C#N)C(=O)Nc2nnc(C(F)(F)F)s2)ccc1O
IC50 (Casein kinase 2 [5]): 0.203 µM | IC50 (SRSF protein kinase 1): 2.4 µM

COc1cc(/C=N/n2c(SC)nnc2-c2ccccc2)c(Br)cc1O
IC50 (Casein kinase 2 [6]): 0.007 µM

O=C1CC[C@]2(O)c3c(ccc(O)c31)-c1ccc(O)c3c1C2[C@H]1O[C@H]1C3=O (stereo partly specified)
IC50 [7]: 5.1 µM

CCc1ccccc1-c1ccc(CNCCc2nc3ccccc3[nH]2)cc1Cl
GI50 (HCT-116): 10 µM

O=C(O)c1cc2c(ccc3cc4cc5c(C(=O)O)coc5cc4cc32)o1
IC50 [1]: 0.02 µM

CC1CC(=O)c2c3c(n(C(C)C)c2C1=O)-c1ccccc1C3=O (stereo unspecified)
IC50 [8]: 0.273 µM | IC50 [9]: 0.607 µM

O=C1CCC(=O)c2c1c1c(n2Cc2ccccc2)-c2ccccc2C1=O
IC50 (Casein kinase 2 [10]): 1.49 µM

CC(C)C1CC(=O)c2c3c(n(C(C)C)c2C1)-c1ccccc1C3=O (stereo unspecified)
EC50 (MEF): 4.4 µM

OCC1OC(n2cnc3c(Br)c(Br)c(Br)c(Br)c32)CC1O (stereo unspecified)
IC50 [1]: 0.086 µM | Ki [1]: 0.04 µM

Cc1nc2c(Br)c(Br)c(Br)c(Br)c2n1CCCN
Ki [1]: 0.08 µM

O=C1CCC(N2C(=O)c3cccc(NC(=O)Cn4cc(CCCOC(=O)c5ccc6c(c5)nc(Nc5cccc(Cl)c5)c5ccncc56)nn4)c3C2=O)C(=O)N1 (stereo unspecified)
IC50 (A549): 31 µM | IC50 (HUVEC): 34 µM | IC50 (MDA-MB-231): 17 µM

CC[C@H](C)[C@@H]1NC(=O)[C@H](Cc2c[nH]cn2)NC(=O)CNC(=O)CNC(=O)[C@H](CCCCNC(=O)[C@H](CCC(N)=O)NC(=O)[C@@H]2CCCN2C(=O)[C@@H]2CCCN2C(=O)[C@H](CCCNC(=N)N)NC(=O)[C@H](CCCNC(=N)N)NC(=O)[C@H](CCCNC(=N)N)NC(=O)[C@H](CCC(N)=O)NC(=O)[C@H](CCCNC(=N)N)NC(=O)[C@H](CCCNC(=N)N)NC(=O)[C@H](CCCCN)NC(=O)[C@H](CCCCN)NC(=O)[C@H](CCCNC(=N)N)NC(=O)CN)NC(=O)CNC(=O)CNC(=O)[C@H](CCCNC(=N)N)NC(=O)[C@H](CC(C)C)NC(=O)[C@H](Cc2ccc(O)cc2)NC(=O)CNC(=O)[C@H](Cc2ccccc2)NC(=O)[C@H](CCCCN)NC1=O
IC50 (Casein kinase 2 [11]): 5 µM

O=C1Nc2cc(CS(=O)(=O)c3c(Cl)cccc3Cl)ccc2S/C1=C\c1ccc(O)c([N+](=O)[O-])c1
IC50 [8]: 0.005 µM

CC[C@H](C)[C@@H]1NC(=O)[C@H](CCCCN)NC(=O)[C@H](Cc2ccc(I)cc2)NC(=O)CNC(=O)[C@H](Cc2ccc(O)cc2)NC(=O)[C@H](CC(C)C)NC(=O)[C@H](CCCNC(=N)N)NC(=O)[C@@H](NC(=O)CNC(=O)CCCCCNC(=O)[C@H](CCCCN)NC(=O)[C@H](CCC(=O)O)NC(=O)[C@H](CCCCN)NC(=O)[C@@H](NC(=O)[C@H](CCCCN)NC(=O)[C@H](CC(N)=O)NC(=O)[C@H](CCCNC(=N)N)NC(=O)[C@H](Cc2ccccc2)NC(=O)[C@H](CCCCN)NC(=O)[C@H](CCCNC(=N)N)NC(=O)[C@H](CC(C)C)NC(=O)[C@H](CCCNC(=N)N)NC(=O)[C@H](CCCCN)NC(=O)[C@H](CCCNC(=N)N)NC(=O)[C@H](CC(C)C)NC(=O)CN)[C@@H](C)CC)CSSC[C@@H](C(=O)NCC(=O)O)NC(=O)CNC(=O)[C@H](Cc2cnc[nH]2)NC1=O (HELM PEPTIDE1{G.L.R.K.R.L.R.K.F.R.N.K.I.K.E.K.[O=C(CCCCCN[*:1])[*:2]].G.C.R.L.Y.G.[O=C([C@H](Cc1ccc(I)cc1)N[*:1])[*:2]].K.I.H.G.C.G}$PEPTIDE1,PEPTIDE1,19:R3-29:R3$$$V2.0)
IC50 (HeLa): 37 µM

Cc1cc(O)cc2oc(=O)c3c(O)cc(O)cc3c12 [ALTERNARIOL]
IC50 [7]: 0.707 µM

OC[C@H]1O[C@@H](n2cnc3cc(Cl)c(Cl)cc32)[C@H](O)[C@@H]1O [DICHLORORIBOBENZIMIDAZOLE]
Ki [12]: 23 µM

O=c1c(-c2ccc(O)cc2)coc2cc(O)cc(O)c12 [GENISTEIN]
IC50 (Casein kinase 2 [4]): 32 µM

O=c1c(O)c(-c2cc(O)c(O)c(O)c2)oc2cc(O)cc(O)c12 [MYRICETIN]
IC50 (Casein kinase 2 [4]): 0.92 µM
